Measured values taken from patent publication US20150202187A1, “COMPOSITIONS AND METHODS FOR TREATMENT OF VITILIGO” (priority 2012, published 2015).

What was measured:
human melanocytes = experiment: Melanogenesis in cultured primary human melanocytes; format: cell-based
Method: Rapamycin (also called sirolimus) inhibits immune attack by inhibiting the response to interleukin-2 (IL-2) and blocking activation of T- and B-cells. Rapamycin binds to the cytosolic protein FK-binding protein 12 (FKBP12) and inhibits the mammalian target of rapamycin (mTOR) pathway by directly binding the mTOR Complex 1 (mTORC1). […] For example, FIG. 1 depicts a western blot of lysates from HL60 cells, a model system for studying human myeloid cell differentiation, which were treated with rapamycin for 24 hours. […] Additionally, FIG. 2 depicts human melanocytes that were treated with rapamycin (0.01 μM) for 96 hours.
(§1) In FIG. 5, Primary Human melanocytes were treated with each agent or the combination for 96 h. […] FIG. 7 depicts a Western blot for protein expression of survival signals in primary human melanocytes treated with FGF, stem cell factor (SCF), forskolin and alpha-MSH, as compared to untreated melanocytes. […] Designation of 1 indicates the darkening (repigmentation) of skin surrounding hair follicles.

[1] = tested on: primary human melanocytes; experiment: Proliferation of primary human melanocytes; format: cell-based; conditions: 10 ng/mL, 96 h, DMSO as untreated control (FIG. 3)
Method: In some embodiments, the present invention is directed to a composition comprising a cosmeceutically acceptable carrier, rapamycin and growth factors such as fibroblast growth factor (FGF), Stem cell Factor (SCF) or Endothelins. […] In FIG. 3, treated Primary Human melanocytes were treated with bFGF (10 ng/mL) with DMSO as untreated control for 96 h. Growth Factors such as basic Fibroblast Growth Factor, Stem Cell Factor and Endothelins are important regulators of melanocyte differentiation, migration, proliferation and survival. Growth factors can therefore protect cells from destruction induced by immune cells. Furthermore, growth factors such as those described, can potentially increase migration of melanoblasts (melanocyte precursor cells) from peripheral regions of vitiligo patches or from hair follicles into the vitiligo lesion thus allowing repigmentation.
as §1

In the case of `N[C@@H](Cc1ccc(O)cc1)C(=O)O` [L-Tyrosine], the “melanogenesis in cultured primary melanocytes” value (human melanocytes; 96 hours (FIG. 10)) is reported as “increased melanogenesis”.

In the case of `N[C@@H](Cc1ccc(O)c(O)c1)C(=O)O` [L-dopa, L-DOPA], the “melanogenesis compared to untreated melanocytes” value (human melanocytes; FIG. 6) is reported as “increased melanogenesis” and the “melanogenesis in human melanocytes” value (human melanocytes; each agent alone, 96 h (FIG. 4)) is reported as “melanogenesis increases”.

“bFGF: recombinant human basic fibroblast growth factor (FGF2)” was tested, and the “proliferation of primary human melanocytes” value [1] was “increases proliferation”.
